The values that follow come from patent US11117900B2 (Vertex Pharmaceuticals Incorporated, priority 2012, dated 2021).

The test system of the experiment is HCT116 colorectal cancer cells. Kind of experiment: Cisplatin sensitization assay (96 h MTS cell viability).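 Note: compound concentration needed to lower the IC50 of Cisplatin alone by a set fold.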 Conditions: Cisplatin sensitization value. In kind it is cell-based. How it is done: Compounds can be screened for their ability to sensitize HCT116 colorectal cancer cells to Cisplatin using a 96 h cell viability (MTS) assay. […] Compounds and Cisplatin are then both added simultaneously to the cell media in 2-fold serial dilutions from a top final concentration of 10 μM as a full matrix of concentrations in a final cell volume of 200 μl, and the cells are then incubated at 37° C. in 5% CO2. After 96 h, 40 μl of MTS reagent (Promega G358a) is added to each well and the cells are incubated for 1 h at 37° C. in 5% CO2.
Compounds with a Cisplatin sensitization value of <0.02 μM are marked with “+++.” Compounds with a Cisplatin sensitization value >0.02 μM but <0.2 μM are marked with “++.” Compounds with a Cisplatin sensitization value >0.2 μM but <5 μM are marked with “+.”
In the case of `N#CCc1cnc2c(C(=O)Nc3cnccc3OCC3CC3)c(N)nn2c1` [I-O-32, 2-amino-6-(cyanomethyl)-N-(4-(cyclopropylmethoxy)pyridin-3-yl)pyrazolo[1,5-a]pyrimidine-3-carboxamide], the “Cisplatin Sensitization Assay” value is recorded as “+++ (Compounds with a Cisplatin sensitization value of <0.02 μM are marked with “+++.”)”. Consider `CN1CCC(OC2CCN(c3ccncc3NC(=O)c3c(N)nn4cc(F)cnc34)CC2)CC1` [I-N-154, 2-amino-6-fluoro-N-(4-(4-((1-methylpiperidin-4-yl)oxy)piperidin-1-yl)pyridin-3-yl)pyrazolo[1,5-a]pyrimidine-3-carboxamide], for which the “Cisplatin Sensitization Assay” value was “+++ (Compounds with a Cisplatin sensitization value of <0.02 μM are marked with “+++.”)”. For `Nc1nn2cc(Cl)cnc2c1C(=O)Nc1cnccc1N1CCC(N)CC1` [I-N-86, 2-amino-N-(4-(4-aminopiperidin-1-yl)pyridin-3-yl)-6-chloropyrazolo[1,5-a]pyrimidine-3-carboxamide], the “Cisplatin Sensitization Assay” value is on record as “+++ (Compounds with a Cisplatin sensitization value of <0.02 μM are marked with “+++.”)”. With `Nc1nn2cc(F)cnc2c1C(=O)Nc1cncc(F)c1N1CCC(n2ccnc2)CC1` [I-N-288, N-(4-(4-(1H-imidazol-1-yl)piperidin-1-yl)-5-fluoropyridin-3-yl)-2-amino-6-fluoropyrazolo[1,5-a]pyrimidine-3-carboxamide] the entry was “+++ (Compounds with a Cisplatin sensitization value of <0.02 μM are marked with “+++.”)”; with `Nc1nn2cc(F)cnc2c1C(=O)Nc1cnccc1OC1CCC(C(=O)O)CC1` (centres unmarked) [I-O-8, 4-((3-(2-amino-6-fluoropyrazolo[1,5-a]pyrimidine-3-carboxamido)pyridin-4-yl)oxy)cyclohexanecarboxylic acid], “+ (Compounds with a Cisplatin sensitization value >0.2 μM but <5 μM are marked with “+.”)”. With `CN(C)C1CCCN(c2ccncc2NC(=O)c2c(N)nn3cc(Cl)cnc23)C1` (centres unmarked) [I-N-40, 2-amino-6-chloro-N-(4-(3-(dimethylamino)piperidin-1-yl)pyridin-3-yl)pyrazolo[1,5-a]pyrimidine-3-carboxamide] the entry was “++ (Compounds with a Cisplatin sensitization value >0.02 μM but <0.2 μM are marked with “++.”)”; with `Nc1nn2cc(Cl)cnc2c1C(=O)Nc1cnccc1N1CCC(N2CCOCC2)CC1` [I-N-104, 2-amino-6-chloro-N-(4-(4-morpholinopiperidin-1-yl)pyridin-3-yl)pyrazolo[1,5-a]pyrimidine-3-carboxamide], “+++ (Compounds with a Cisplatin sensitization value of <0.02 μM are marked with “+++.”)”; with `Cc1cc(C(=O)N2CCN(C)CC2)ccc1-c1ccncc1NC(=O)c1c(N)nn2cc(F)cnc12` [I-C-45, 2-amino-6-fluoro-N-(4-(2-methyl-4-(4-methylpiperazine-1-carbonyl)phenyl)pyridin-3-yl)pyrazolo[1,5-a]pyrimidine-3-carboxamide], “+++ (Compounds with a Cisplatin sensitization value of <0.02 μM are marked with “+++.”)”. Regarding `Nc1nn2cc(F)cnc2c1C(=O)Nc1cncc(F)c1N1CCS(=O)(=O)CC1` [I-N-250, 2-amino-N-(4-(1,1-dioxidothiomorpholino)-5-fluoropyridin-3-yl)-6-fluoropyrazolo[1,5-a]pyrimidine-3-carboxamide], the “Cisplatin Sensitization Assay” value is “++ (Compounds with a Cisplatin sensitization value >0.02 μM but <0.2 μM are marked with “++.”)”. With `Nc1nn2cc(F)cnc2c1C(=O)Nc1cncc(F)c1N1CCNCC1` [I-N-118, 2-amino-6-fluoro-N-(5-fluoro-4-(piperazin-1-yl)pyridin-3-yl)pyrazolo[1,5-a]pyrimidine-3-carboxamide] the entry was “+++ (Compounds with a Cisplatin sensitization value of <0.02 μM are marked with “+++.”)”; with `Nc1nn2cc(Cl)cnc2c1C(=O)Nc1cnccc1C1CCN(C2COC2)CC1` [I-C-11, 2-amino-6-chloro-N-(4-(1-(oxetan-3-yl)piperidin-4-yl)pyridin-3-yl)pyrazolo[1,5-a]pyrimidine-3-carboxamide], “+++ (Compounds with a Cisplatin sensitization value of <0.02 μM are marked with “+++.”)”; with `Nc1nn2cc(F)cnc2c1C(=O)Nc1cncc(F)c1N1CCN(C(=O)C23CCN(CC2)CC3)CC1` [I-N-134, 2-amino-6-fluoro-N-(5-fluoro-4-(4-(quinuclidine-4-carbonyl)piperazin-1-yl)pyridin-3-yl)pyrazolo[1,5-a]pyrimidine-3-carboxamide], “+ (Compounds with a Cisplatin sensitization value >0.2 μM but <5 μM are marked with “+.”)”. The entry for `CN(C)CCOc1ccncc1NC(=O)c1c(N)nn2cc(CC#N)cnc12` [I-O-24, 2-amino-6-(cyanomethyl)-N-(4-(2-(dimethylamino)ethoxy)pyridin-3-yl)pyrazolo[1,5-a]pyrimidine-3-carboxamide] is “++ (Compounds with a Cisplatin sensitization value >0.02 μM but <0.2 μM are marked with “++.”)”; for `Nc1nn2cc(F)cnc2c1C(=O)Nc1cnccc1N1CCC(S(=O)(=O)N2CCC2)CC1` [I-N-271, 2-amino-N-(4-(4-(azetidin-1-ylsulfonyl)piperidin-1-yl)pyridin-3-yl)-6-fluoropyrazolo[1,5-a]pyrimidine-3-carboxamide] it is “+++ (Compounds with a Cisplatin sensitization value of <0.02 μM are marked with “+++.”)”; for `Nc1nn2cc(F)cnc2c1C(=O)Nc1cncc(F)c1N1CCN(C(=O)C2CNCCO2)CC1` (centres unmarked) [I-N-172, 2-amino-6-fluoro-N-(5-fluoro-4-(4-(morpholine-2-carbonyl)piperazin-1-yl)pyridin-3-yl)pyrazolo[1,5-a]pyrimidine-3-carboxamide] it is “+++ (Compounds with a Cisplatin sensitization value of <0.02 μM are marked with “+++.”)”. With `CC(C)(C#N)c1cnc2c(C(=O)Nc3cncc(F)c3N3CCN(C4COC4)CC3)c(N)nn2c1` [I-N-144] the entry was “+++ (Compounds with a Cisplatin sensitization value of <0.02 μM are marked with “+++.”)”; with `Nc1nn2cc(F)cnc2c1C(=O)Nc1cnccc1N1CCC(C(=O)N2CC(F)C2)CC1` [I-G-82, 2-amino-6-fluoro-N-(4-(4-(3-fluoroazetidine-1-carbonyl)piperidin-1-yl)pyridin-3-yl)pyrazolo[1,5-a]pyrimidine-3-carboxamide], “+++ (Compounds with a Cisplatin sensitization value of <0.02 μM are marked with “+++.”)”; with `CNCCCN(C)C(=O)C1CCN(c2c(F)cncc2NC(=O)c2c(N)nn3cc(F)cnc23)CC1` [I-G-17], “+ (Compounds with a Cisplatin sensitization value >0.2 μM but <5 μM are marked with “+.”)”.

Take `Nc1nn2cc(F)cnc2c1C(=O)Nc1cnccc1N1CCN(C(=O)C2COC2)CC1` [I-N-249]: the “Cisplatin Sensitization Assay” value is given as “+++ (Compounds with a Cisplatin sensitization value of <0.02 μM are marked with “+++.”)”.

In the case of `Cc1cncc(NC(=O)c2c(N)nn3cc(F)cnc23)c1N1CCN(C2CCOCC2)CC1` [I-N-123, 2-amino-6-fluoro-N-(5-methyl-4-(4-(tetrahydro-2H-pyran-4-yl)piperazin-1-yl)pyridin-3-yl)pyrazolo[1,5-a]pyrimidine-3-carboxamide], the “Cisplatin Sensitization Assay” value was “++ (Compounds with a Cisplatin sensitization value >0.02 μM but <0.2 μM are marked with “++.”)”. With `CN1C2CCC1CN(C(=O)C1CCN(c3c(F)cncc3NC(=O)c3c(N)nn4cc(F)cnc34)CC1)C2` [I-G-52, 2-amino-6-fluoro-N-(5-fluoro-4-(4-(8-methyl-3,8-diazabicyclo[3.2.1]octane-3-carbonyl)piperidin-1-yl)pyridin-3-yl)pyrazolo[1,5-a]pyrimidine-3-carboxamide] the entry was “+++ (Compounds with a Cisplatin sensitization value of <0.02 μM are marked with “+++.”)”; with `COC1CN(C(=O)C2CCN(c3ccncc3NC(=O)c3c(N)nn4cc(F)cnc34)CC2)C1` [I-G-78, 2-amino-6-fluoro-N-(4-(4-(3-methoxyazetidine-1-carbonyl)piperidin-1-yl)pyridin-3-yl)pyrazolo[1,5-a]pyrimidine-3-carboxamide], “+++ (Compounds with a Cisplatin sensitization value of <0.02 μM are marked with “+++.”)”. Regarding `Cc1cccnc1-c1ccncc1NC(=O)c1c(N)nn2cc(F)cnc12` [I-C-36, 2-amino-6-fluoro-N-(3-methyl-[2,4′-bipyridin]-3′-yl)pyrazolo[1,5-a]pyrimidine-3-carboxamide], the “Cisplatin Sensitization Assay” value was “+++ (Compounds with a Cisplatin sensitization value of <0.02 μM are marked with “+++.”)”.

Consider `Nc1nn2cc(Cl)cnc2c1C(=O)Nc1cnccc1OC1CCOCC1` [I-O-61, 2-amino-6-chloro-N-(4-((tetrahydro-2H-pyran-4-yl)oxy)pyridin-3-yl)pyrazolo[1,5-a]pyrimidine-3-carboxamide], for which the “Cisplatin Sensitization Assay” value is reported as “+++ (Compounds with a Cisplatin sensitization value of <0.02 μM are marked with “+++.”)”. The entry for `Nc1nn2cc(F)cnc2c1C(=O)Nc1cnccc1N1CCN2C(=O)CC[C@H]2C1` [I-N-217, (S)-2-amino-6-fluoro-N-(4-(6-oxohexahydropyrrolo[1,2-a]pyrazin-2(1H)-yl)pyridin-3-yl)pyrazolo[1,5-a]pyrimidine-3-carboxamide] is “++ (Compounds with a Cisplatin sensitization value >0.02 μM but <0.2 μM are marked with “++.”)”; for `CN1CCC(Oc2c(Cl)cncc2NC(=O)c2c(N)nn3cc(Cl)cnc23)CC1` [I-O-46, 2-amino-6-chloro-N-(5-chloro-4-((1-methylpiperidin-4-yl)oxy)pyridin-3-yl)pyrazolo[1,5-a]pyrimidine-3-carboxamide] it is “+ (Compounds with a Cisplatin sensitization value >0.2 μM but <5 μM are marked with “+.”)”.
